Each compound was assayed against T1, Histidinol dehydrogenase (Brucella suis biovar 1 (strain 1330), UniProt Q8G2R2) (assay: Inhibition of Brucella suis 1330 His6-tagged HDH expressed in Escherichia coli BL21 (DE3) using L-histidinol as substrate assessed as NADH formation preincubated for 5 mins followed by substrate addition).
T1 sequence (Q8G2R2 whole entry): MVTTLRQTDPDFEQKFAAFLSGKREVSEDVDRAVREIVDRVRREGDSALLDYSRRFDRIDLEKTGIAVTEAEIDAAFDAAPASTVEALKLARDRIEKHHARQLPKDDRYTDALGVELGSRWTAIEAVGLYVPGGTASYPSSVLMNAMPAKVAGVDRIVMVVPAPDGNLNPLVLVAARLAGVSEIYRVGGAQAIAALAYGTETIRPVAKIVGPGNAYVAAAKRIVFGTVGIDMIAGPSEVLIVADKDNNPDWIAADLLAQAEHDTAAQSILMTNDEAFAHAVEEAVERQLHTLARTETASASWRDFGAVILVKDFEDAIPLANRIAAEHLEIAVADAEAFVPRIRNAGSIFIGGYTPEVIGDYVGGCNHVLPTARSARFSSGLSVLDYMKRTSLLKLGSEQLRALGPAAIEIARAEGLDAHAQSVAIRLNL

SMILES | IC50 [nM]
N[C@@H](Cc1c[nH]cn1)C(=O)CS | 2100
N[C@@H](Cc1c[nH]cn1)C(=O)CSc1ccccc1 | 7100
Cc1ccc(SCC(=O)[C@@H](N)Cc2c[nH]cn2)cc1 | 39500
N[C@@H](Cc1c[nH]cn1)C(=O)CSc1ccc(F)cc1 | 3100
N[C@@H](Cc1c[nH]cn1)C(=O)CSc1ccc2ccccc2c1 | 3300
N[C@@H](Cc1c[nH]cn1)C(=O)CSc1ccc(Br)cc1 | 2800
N[C@@H](Cc1c[nH]cn1)C(=O)CSc1c(F)c(F)c(F)c(F)c1F | 19200
N[C@@H](Cc1c[nH]cn1)C(=O)CO | 24.3
N[C@@H](Cc1c[nH]cn1)C(=O)COc1ccccc1 | 3650
Cc1ccc(OCC(=O)[C@@H](N)Cc2c[nH]cn2)cc1 | 208
N[C@@H](Cc1c[nH]cn1)C(=O)COc1ccc(F)cc1 | 4700
N[C@@H](Cc1c[nH]cn1)C(=O)COc1ccc2ccccc2c1 | 108
N[C@@H](Cc1c[nH]cn1)C(=O)COc1ccc(Br)cc1 | 1600
N[C@@H](Cc1c[nH]cn1)C(=O)COc1c(F)c(F)c(F)c(F)c1F | 2780
